Assay results from article PMC7430754, “Cloning and functional complementation of ten Schistosoma mansoni phosphodiesterases expressed in the mammalian host stages” (PLoS Neglected Tropical Diseases, 2020).

What was measured:
SmPDE4A = target: T1, SmPDE4A (Schistosoma mansoni, UniProt A0ACM8RGL1); assay: alamar blue growth assay of T. brucei TbrPDEB1/B2 double knockout dependent on this PDE; type: cell-based, Trypanosoma brucei; conditions: growth read-out of whole trypanosomes, not enzyme assay; HMI-11 medium, 37 °C, 48 h plus 24 h resazurin
T1 construct: gene PDE4A; full length 699 aa, codon-optimised, N-terminal first 70 aa of TbrPDEB1 as targeting tag, C-terminal GFP; expressed in T. b. brucei 2T1 lacking TbrPDEB1/B2
Description: alamar blue growth assay of T. brucei TbrPDEB1/B2 double knockout dependent on this PDE on SmPDE4A

[1] = tested on: T2, T. b. brucei 2T1 (parental wild type); assay: microbe, parasite or virus in culture; set-up: species or system T. b. brucei 2T1 bloodstream form; Alamar blue (resazurin) viability of parental bloodstream-form trypanosomes, fluorescence; conditions: Trypanosoma brucei, 72 h, read-out: 2T1-WT EC50 (μM)
T2 construct: 2T1, bloodstream form
Experimental: Drug sensitivities were assessed using a modified version of the alamar blue assay described previously. Briefly, test drugs were serially diluted in 100 μl of complete HMI‐11 media across two rows of a white 96-well plate (Greiner, Stonehouse, UK). Bloodstream‐form trypanosome cultures were diluted in HMI‐11, and 100 μl was added to all wells to give a final cell density of 1 × 10^5 trypanosomes/ml. Plates were incubated for 48 h at 37°C/5% CO2, prior to the addition of 20 μl of 5 mM resazurin sodium salt (Sigma‐Aldrich, Gillingham, UK) in PBS, pH7.4. Plates were incubated for a further 24 h in the same conditions, before fluorescence was measured using a FLUOstar Optima fluorimeter (BMG Labtech, Aylesbury, UK) with excitation and emission filters of 544 nm and 590 nm, respectively. […] All EC50 values were determined at least three times independently.

TbrPDEB2 = target: T3, TbrPDEB2 (Trypanosoma brucei, UniProt Q38F42); assay: alamar blue growth assay of T. brucei TbrPDEB1/B2 double knockout dependent on this PDE; type: cell-based; conditions: growth read-out of whole trypanosomes, not enzyme assay; HMI-11 medium, 37 °C, 48 h plus 24 h resazurin
T3 construct: gene Tb09.160.3630; full length, C-terminal 6Myc tag, expressed from rRNA locus in T. b. brucei 2T1 lacking endogenous TbrPDEB1/B2
Description: alamar blue growth assay of T. brucei TbrPDEB1/B2 double knockout dependent on this PDE on TbrPDEB2

TbrPDEB1 = target: T4, TbrPDEB1 (Trypanosoma brucei, UniProt Q8WQX9); assay: as above; type: cell-based; conditions: growth read-out of whole trypanosomes, not enzyme assay; HMI-11 medium, 37 °C, 48 h plus 24 h resazurin
T4 construct: gene PDEB1; full length, C-terminal 6Myc tag, expressed from rRNA locus in T. b. brucei 2T1 lacking endogenous TbrPDEB1/B2
Description: alamar blue growth assay of T. brucei TbrPDEB1/B2 double knockout dependent on this PDE on TbrPDEB1

T3 sequence (Q38F42 entry or part of it): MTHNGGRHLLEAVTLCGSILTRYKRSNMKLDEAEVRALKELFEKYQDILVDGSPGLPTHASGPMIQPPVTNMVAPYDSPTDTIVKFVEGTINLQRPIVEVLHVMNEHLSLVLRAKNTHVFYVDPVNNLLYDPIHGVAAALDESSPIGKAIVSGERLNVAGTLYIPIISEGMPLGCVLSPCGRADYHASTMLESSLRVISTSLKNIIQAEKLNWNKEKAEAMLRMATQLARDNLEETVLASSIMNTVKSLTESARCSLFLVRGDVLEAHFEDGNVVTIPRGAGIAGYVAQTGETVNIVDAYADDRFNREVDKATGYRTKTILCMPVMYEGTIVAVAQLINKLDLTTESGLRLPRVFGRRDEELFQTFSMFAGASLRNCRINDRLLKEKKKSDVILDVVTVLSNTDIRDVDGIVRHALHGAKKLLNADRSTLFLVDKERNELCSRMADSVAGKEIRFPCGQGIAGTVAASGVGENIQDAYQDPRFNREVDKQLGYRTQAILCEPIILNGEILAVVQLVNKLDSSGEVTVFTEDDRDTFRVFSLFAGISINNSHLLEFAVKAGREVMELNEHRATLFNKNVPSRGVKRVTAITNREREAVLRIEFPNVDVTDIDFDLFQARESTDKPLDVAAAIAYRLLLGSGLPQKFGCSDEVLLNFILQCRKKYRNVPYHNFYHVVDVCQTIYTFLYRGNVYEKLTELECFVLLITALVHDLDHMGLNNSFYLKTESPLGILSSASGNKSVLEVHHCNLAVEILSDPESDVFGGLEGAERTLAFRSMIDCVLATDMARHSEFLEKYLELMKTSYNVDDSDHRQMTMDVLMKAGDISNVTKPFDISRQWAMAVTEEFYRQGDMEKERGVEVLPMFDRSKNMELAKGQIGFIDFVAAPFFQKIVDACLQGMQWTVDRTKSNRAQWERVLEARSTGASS
T4 sequence (Q8WQX9 entry or part of it): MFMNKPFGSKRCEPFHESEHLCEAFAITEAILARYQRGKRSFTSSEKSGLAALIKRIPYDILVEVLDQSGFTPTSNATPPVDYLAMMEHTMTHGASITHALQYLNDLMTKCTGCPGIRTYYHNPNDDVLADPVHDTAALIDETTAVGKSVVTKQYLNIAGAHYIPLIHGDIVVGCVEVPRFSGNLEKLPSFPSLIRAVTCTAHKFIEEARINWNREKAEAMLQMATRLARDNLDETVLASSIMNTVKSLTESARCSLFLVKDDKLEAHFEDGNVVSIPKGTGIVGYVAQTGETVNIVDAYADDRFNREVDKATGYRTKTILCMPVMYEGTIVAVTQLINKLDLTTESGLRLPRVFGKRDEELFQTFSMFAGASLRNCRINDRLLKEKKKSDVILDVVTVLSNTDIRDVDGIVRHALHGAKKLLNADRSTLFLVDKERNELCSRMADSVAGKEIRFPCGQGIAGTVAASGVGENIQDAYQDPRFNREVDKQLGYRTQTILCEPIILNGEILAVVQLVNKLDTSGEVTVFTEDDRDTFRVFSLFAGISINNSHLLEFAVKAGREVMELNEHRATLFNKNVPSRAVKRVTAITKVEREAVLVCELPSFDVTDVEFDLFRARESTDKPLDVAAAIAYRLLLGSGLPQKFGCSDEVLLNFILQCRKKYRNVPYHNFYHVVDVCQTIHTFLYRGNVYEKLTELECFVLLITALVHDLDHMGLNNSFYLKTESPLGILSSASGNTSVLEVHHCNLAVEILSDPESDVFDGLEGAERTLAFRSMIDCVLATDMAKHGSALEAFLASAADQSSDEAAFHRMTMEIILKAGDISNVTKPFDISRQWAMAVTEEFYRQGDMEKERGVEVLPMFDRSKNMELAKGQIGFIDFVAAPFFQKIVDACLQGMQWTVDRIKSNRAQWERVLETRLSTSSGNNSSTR

Row | SMILES | dKO+SmPDE4A / EC50 (SmPDE4A) [nM] | EC50 [1] [µM] | dKO+TbrPDEB2 EC50 (TbrPDEB2) [nM] | dKO+TbrPDEB1 EC50 (TbrPDEB1) [nM]
1 | COc1ccc(C2=NN(C3CCCCCC3)C(=O)[C@@H]3CC=CC[C@H]23)cc1OCCCCOc1ccc(-c2nn[nH]n2)cc1 [NPD-001] | 24 ± 3 | 0.1 ± 0.015 | 84 ± 18 | –
2 | COc1ccc(C2=NN(C3CCN(C(=O)CN4C(=O)CC(C)(C)CC4=O)CC3)C(=O)[C@@H]3CC=CC[C@H]23)cc1OC [NPD-226] | 40 ± 4 | 0.16 ± 0.01 | 82 ± 9 | 290 ± 110
3 | N=C(N)c1ccc(OCCCCCOc2ccc(C(=N)N)cc2)cc1 [Pentamidine] | – | 0.0012 ± 0.0002 | – | –
4 | COc1cc2c(cc1OC)-c1cc(=Nc3c(C)cc(C)cc3C)n(C)c(=O)n1CC2 [Trequisin] | – | 33.2 ± 0.9 | – | –
